Test results from patent US9738634B2, “Heterocyclic amide compound and herbicide” (SYNGENTA PARTICIPATIONS AG, priority 2013, dated 2017).

Legend:
Type in all cases: in vivo
[1] = test system: barnyard grass; assay: Test Example 1: weedkilling efficacy, preemergent weed treatment in the submerged state; A: barnyard grass; settings: treatment dosage 252 g/ha
Procedure, shortened: (§1)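 Pre-emergence paddy test: weed seeds sown in submerged alluvial soil (4 cm water), 2.5-leaf rice transplanted, water-diluted emulsion applied to water surface at sowing at stated g/ha. Scored at 3 weeks, greenhouse 25–30 °C.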

[2] = test system: bulrush; assay: Test Example 1: weedkilling efficacy, preemergent weed treatment in the submerged state; B: bulrush; settings: treatment dosage 252 g/ha
Procedure, shortened: as §1

[3] = test system: oval-leafed pondweed; assay: Test Example 1: weedkilling efficacy, preemergent weed treatment in the submerged state; C: oval-leafed pondweed; settings: treatment dosage 252 g/ha
Procedure, shortened: as §1

[4] = test system: transplanted rice; assay: Test Example 1: preemergent weed treatment in the submerged state, effect on crop; a: transplanted rice; settings: treatment dosage 252 g/ha
Procedure, shortened: as §1

[5] = test system: barnyard grass; assay: Test Example 2: weedkilling efficacy, growth period weed treatment in the submerged state; A: barnyard grass; settings: treatment dosage 252 g/ha
Procedure, shortened: (§2)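 Seedlings at 1-2 leaves in 4 cm-deep submerged alluvial soil received emulsion formulations on the water surface, dosed per hectare; effects were judged 3 weeks on.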

[6] = test system: bulrush; assay: Test Example 2: weedkilling efficacy, growth period weed treatment in the submerged state; B: bulrush; settings: treatment dosage 252 g/ha
Procedure, shortened: as §2

[7] = test system: oval-leafed pondweed; assay: Test Example 2: weedkilling efficacy, growth period weed treatment in the submerged state; C: oval-leafed pondweed; settings: treatment dosage 252 g/ha
Procedure, shortened: as §2

[8] = test system: crabgrass; assay: Test Example 3: weedkilling efficacy through soil treatment; D: crabgrass; settings: treatment dosage 315 g/ha
Procedure, shortened: (§3)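 Crop and weed responses were judged three weeks after a uniform surface spray of the water-diluted emulsion at the given g/ha rate. Seeds sat beneath about 1.5 cm of sterilized diluvial soil, and boxes stood in a greenhouse at 25 to 30° C.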

[9] = test system: green foxtail; assay: Test Example 3: weedkilling efficacy through soil treatment; E: green foxtail; settings: treatment dosage 315 g/ha
Procedure, shortened: as §3

[10] = test system: wild oat; assay: Test Example 3: weedkilling efficacy through soil treatment; G: wild oat; settings: treatment dosage 315 g/ha
Procedure, shortened: as §3

[11] = test system: black-grass; assay: Test Example 3: weedkilling efficacy through soil treatment; H: black-grass; settings: treatment dosage 315 g/ha
Procedure, shortened: as §3

[12] = test system: Italian ryegrass; assay: Test Example 3: weedkilling efficacy through soil treatment; I: Italian ryegrass; settings: treatment dosage 315 g/ha
Procedure, shortened: as §3

[13] = test system: Indian mallow; assay: Test Example 3: weedkilling efficacy through soil treatment; K: Indian mallow; settings: treatment dosage 315 g/ha
Procedure, shortened: as §3

[14] = test system: redroot pigweed; assay: Test Example 3: weedkilling efficacy through soil treatment; L: redroot pigweed; settings: treatment dosage 315 g/ha
Procedure, shortened: as §3

[15] = test system: fig-leafed goosefoot; assay: Test Example 3: weedkilling efficacy through soil treatment; M: fig-leafed goosefoot; settings: treatment dosage 315 g/ha
Procedure, shortened: as §3

[16] = test system: chickweed; assay: Test Example 3: weedkilling efficacy through soil treatment; N: chickweed; settings: treatment dosage 315 g/ha
Procedure, shortened: as §3

[17] = test system: birds-eye speedwell; assay: Test Example 3: weedkilling efficacy through soil treatment; p: birds-eye speedwell; settings: treatment dosage 315 g/ha
Procedure, shortened: as §3

[18] = test system: directly sown rice; assay: Test Example 3: soil treatment, effect on crop; b: directly sown rice; settings: treatment dosage 315 g/ha
Procedure, shortened: as §3

[19] = test system: corn; assay: Test Example 3: soil treatment, effect on crop; c: corn; settings: treatment dosage 315 g/ha
Procedure, shortened: as §3

[20] = test system: soybean; assay: Test Example 3: soil treatment, effect on crop; d: soybean; settings: treatment dosage 315 g/ha
Procedure, shortened: as §3

[21] = test system: wheat; assay: Test Example 3: soil treatment, effect on crop; e: wheat; settings: treatment dosage 315 g/ha
Procedure, shortened: as §3

[22] = test system: beet; assay: Test Example 3: soil treatment, effect on crop; f: beet; settings: treatment dosage 315 g/ha
Procedure, shortened: as §3

[23] = test system: crabgrass; assay: Test Example 4: weedkilling efficacy by foliar treatment; D: crabgrass; settings: treatment dosage 315 g/ha
Procedure, shortened: (§4)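 Seeds are spot-sown into sterilized diluvial soil and covered with about 1.5 cm of soil. After 14 days' greenhouse growth at 25 to 30° C, plants are sprayed on stems and leaves with diluted emulsion at the stated g/ha rate, then scored at 3 weeks.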

[24] = test system: green foxtail; assay: Test Example 4: weedkilling efficacy by foliar treatment; E: green foxtail; settings: treatment dosage 315 g/ha
Procedure, shortened: as §4

[25] = test system: black-grass; assay: Test Example 4: weedkilling efficacy by foliar treatment; H: black-grass; settings: treatment dosage 315 g/ha
Procedure, shortened: as §4

[26] = test system: Italian ryegrass; assay: Test Example 4: weedkilling efficacy by foliar treatment; I: Italian ryegrass; settings: treatment dosage 315 g/ha
Procedure, shortened: as §4

[27] = test system: Indian mallow; assay: Test Example 4: weedkilling efficacy by foliar treatment; K: Indian mallow; settings: treatment dosage 315 g/ha
Procedure, shortened: as §4

[28] = test system: redroot pigweed; assay: Test Example 4: weedkilling efficacy by foliar treatment; L: redroot pigweed; settings: treatment dosage 315 g/ha
Procedure, shortened: as §4

[29] = test system: fig-leafed goosefoot; assay: Test Example 4: weedkilling efficacy by foliar treatment; M: fig-leafed goosefoot; settings: treatment dosage 315 g/ha
Procedure, shortened: as §4

[30] = test system: chickweed; assay: Test Example 4: weedkilling efficacy by foliar treatment; N: chickweed; settings: treatment dosage 315 g/ha
Procedure, shortened: as §4

[31] = test system: catchweed; assay: Test Example 4: weedkilling efficacy by foliar treatment; O: catchweed; settings: treatment dosage 315 g/ha
Procedure, shortened: as §4

[32] = test system: birds-eye speedwell; assay: Test Example 4: weedkilling efficacy by foliar treatment; p: birds-eye speedwell; settings: treatment dosage 315 g/ha
Procedure, shortened: as §4

[33] = test system: directly sown rice; assay: Test Example 4: foliar treatment, effect on crop; b: directly sown rice; settings: treatment dosage 315 g/ha
Procedure, shortened: as §4

[34] = test system: corn; assay: Test Example 4: foliar treatment, effect on crop; c: corn; settings: treatment dosage 315 g/ha
Procedure, shortened: as §4

[35] = test system: soybean; assay: Test Example 4: foliar treatment, effect on crop; d: soybean; settings: treatment dosage 315 g/ha
Procedure, shortened: as §4

[36] = test system: wheat; assay: Test Example 4: foliar treatment, effect on crop; e: wheat; settings: treatment dosage 315 g/ha
Procedure, shortened: as §4

[37] = test system: beet; assay: Test Example 4: foliar treatment, effect on crop; f: beet; settings: treatment dosage 315 g/ha
Procedure, shortened: as §4

CSc1nsc(NC(=O)C(C)(C)N2COC(C)=C(c3ccsc3)C2=O)n1 [B-1-05]
A (barnyard grass) weedkilling efficacy grade [1]: 5 (weed kill ratio 90% or more, (practically complete withering)) | B (bulrush) weedkilling efficacy grade [2]: 5 (weed kill ratio 90% or more, (practically complete withering)) | C (oval-leafed pondweed) weedkilling efficacy grade [3]: 5 (weed kill ratio 90% or more, (practically complete withering)) | a (transplanted rice) effect on crop grade [4]: 4 (weed kill ratio 70% or more, less than 90%) | A (barnyard grass) weedkilling efficacy grade [5]: 5 (weed kill ratio 90% or more, (practically complete withering)) | B (bulrush) weedkilling efficacy grade [6]: 5 (weed kill ratio 90% or more, (practically complete withering)) | C (oval-leafed pondweed) weedkilling efficacy grade [7]: 5 (weed kill ratio 90% or more, (practically complete withering)) | D (crabgrass) weedkilling efficacy grade [8]: 5 (weed kill ratio 90% or more, (practically complete withering)) | E (green foxtail) weedkilling efficacy grade [9]: 5 (weed kill ratio 90% or more, (practically complete withering)) | G (wild oat) weedkilling efficacy grade [10]: 5 (weed kill ratio 90% or more, (practically complete withering)) | H (black-grass) weedkilling efficacy grade [11]: 5 (weed kill ratio 90% or more, (practically complete withering)) | I (Italian ryegrass) weedkilling efficacy grade [12]: 0 (weed kill ratio 5% or less (practically no effect)) | K (Indian mallow) weedkilling efficacy grade [13]: 4 (weed kill ratio 70% or more, less than 90%) | L (redroot pigweed) weedkilling efficacy grade [14]: 4 (weed kill ratio 70% or more, less than 90%) | M (fig-leafed goosefoot) weedkilling efficacy grade [15]: 5 (weed kill ratio 90% or more, (practically complete withering)) | N (chickweed) weedkilling efficacy grade [16]: 4 (weed kill ratio 70% or more, less than 90%) | P (birds-eye speedwell) weedkilling efficacy grade [17]: 5 (weed kill ratio 90% or more, (practically complete withering)) | b (directly sown rice) effect on crop grade [18]: 5 (weed kill ratio 90% or more, (practically complete withering)) | c (corn) effect on crop grade [19]: 1 (weed kill ratio 5% or more, less than 20%) | d (soybean) effect on crop grade [20]: 0 (weed kill ratio 5% or less (practically no effect)) | e (wheat) effect on crop grade [21]: 0 (weed kill ratio 5% or less (practically no effect)) | f (beet) effect on crop grade [22]: 5 (weed kill ratio 90% or more, (practically complete withering)) | D (crabgrass) weedkilling efficacy grade [23]: 5 (weed kill ratio 90% or more, (practically complete withering)) | E (green foxtail) weedkilling efficacy grade [24]: 5 (weed kill ratio 90% or more, (practically complete withering)) | H (black-grass) weedkilling efficacy grade [25]: 5 (weed kill ratio 90% or more, (practically complete withering)) | I (Italian ryegrass) weedkilling efficacy grade [26]: 4 (weed kill ratio 70% or more, less than 90%) | K (Indian mallow) weedkilling efficacy grade [27]: 5 (weed kill ratio 90% or more, (practically complete withering)) | L (redroot pigweed) weedkilling efficacy grade [28]: 5 (weed kill ratio 90% or more, (practically complete withering)) | M (fig-leafed goosefoot) weedkilling efficacy grade [29]: 5 (weed kill ratio 90% or more, (practically complete withering)) | N (chickweed) weedkilling efficacy grade [30]: 4 (weed kill ratio 70% or more, less than 90%) | O (catchweed) weedkilling efficacy grade [31]: 4 (weed kill ratio 70% or more, less than 90%) | P (birds-eye speedwell) weedkilling efficacy grade [32]: 5 (weed kill ratio 90% or more, (practically complete withering)) | b (directly sown rice) effect on crop grade [33]: 4 (weed kill ratio 70% or more, less than 90%) | c (corn) effect on crop grade [34]: 2 (weed kill ratio 20% or more, less than 40%) | d (soybean) effect on crop grade [35]: 0 (weed kill ratio 5% or less (practically no effect)) | e (wheat) effect on crop grade [36]: 0 (weed kill ratio 5% or less (practically no effect)) | f (beet) effect on crop grade [37]: 4 (weed kill ratio 70% or more, less than 90%)
